Results: US12629370B2, “Treatment of prostate cancer” (Sumitomo Pharma Co., Ltd., priority 2016, dated 2026)
Several values for one entry are separate records, joined by “and”; a condition that tells them apart may be missing. Equal entries are not always repeated.

Experiments:
[1] = system: FSH; experiment: Example 9: FSH; assay type: in vivo, human
Experimental: (§1) Eligible male patients were aged ≥18 years with a histologically confirmed diagnosis of localized, intermediate-risk prostate cancer, for whom 6-month neoadjuvant and adjuvant androgen deprivation therapy (ADT) to external beam radiation therapy (EBRT) was indicated. The criteria for establishing intermediate-risk prostate cancer included the presence of one of the following, without any high-risk feature: T2b-T2c disease, Gleason score 7, or prostate-specific antigen (PSA) 10-20 ng/mL. Additional inclusion criteria included: EBRT scheduled to begin ≥12 weeks after baseline visit; screening serum testosterone >150 ng/dL (5.2 nmol/L); screening PSA concentration >2 ng/ml; body mass index ≥18.0 at screening or baseline (i.e., the subject's BMI prior to treatment commencing); Eastern Cooperative Oncology Group performance status of 0 or 1 at screening. Based on investigator discretion and clinical assessment of the patient's overall medical and disease status, participation was allowed for older patients with high-risk disease (e.g., based on Gleason score or tumor status) who were deemed likely to benefit from 6 months of neoadjuvant/adjuvant ADT. Most patients had intermediate-risk disease. However, a few patients, based on Gleason score or tumor, node, and metastasis staging system, were technically of higher than intermediate risk.
(§2) Both treatment arms received treatment for 24 weeks. Patients remained on treatment for at least 12 weeks before the start of external beam radiation treatment (EBRT), which was initiated for most patients between Week 13, Day 1 and Week 15, Day 1. EBRT began no later than day 1, week 17.
(§3) Patients were evaluated every 4 weeks during the treatment period (including day 1, week 25), at end of treatment (defined as week 29), during follow-up (week 33), and at end of study (EOS).
(§4) Samples for testosterone, luteinizing hormone (LH), FSH, and PSA concentrations were taken at screening, on day 1 of the first week (additionally days 2 and 4 for testosterone and LH), and on day 1 of weeks 2, 3, 5, 9, 13, 17, 21, 25, 29, 33, and 37 thereafter. […] Suppression of FSH was less profound than that of LH, but consistent with the literature, and was greater than that observed with GnRH agonists.

[2] = system: serum testosterone; experiment: Example 9: serum testosterone, castration and recovery, neoadjuvant/adjuvant ADT to EBRT, versus degarelix; assay type: in vivo, human
Experimental: Eligible male patients were aged ≥18 years with a histologically confirmed diagnosis of localized, intermediate-risk prostate cancer, for whom 6-month neoadjuvant and adjuvant androgen deprivation therapy (ADT) to external beam radiation therapy (EBRT) was indicated. The criteria for establishing intermediate-risk prostate cancer included the presence of one of the following, without any high-risk feature: T2b-T2c disease, Gleason score 7, or prostate-specific antigen (PSA) 10-20 ng/mL. […] Based on investigator discretion and clinical assessment of the patient's overall medical and disease status, participation was allowed for older patients with high-risk disease (e.g., based on Gleason score or tumor status) who were deemed likely to benefit from 6 months of neoadjuvant/adjuvant ADT.
Both treatment arms received treatment for 24 weeks. […] EBRT began no later than day 1, week 17. […]
Samples for testosterone, luteinizing hormone (LH), FSH, and PSA concentrations were taken at screening, on day 1 of the first week (additionally days 2 and 4 for testosterone and LH), and on day 1 of weeks 2, 3, 5, 9, 13, 17, 21, 25, 29, 33, and 37 thereafter.

[3] = system: healthy men; experiment: Example 7: safety and tolerability in healthy men
Experimental: The 40 mg dose was administered once per day with a single load dose of 360 mg on Day 1 of the 14 days of treatment administration. For the 20 mg dosages, one 20 mg dose was administered with loading doses of 320 mg on Day 1, 240 mg on Day 2, and 160 mg on Day 3, and the other 20 mg dose was administered with loading doses of 320 mg on Day 1 and 160 mg on Day 2. […] The 40 mg dose was administered with loading doses of 320 mg and 160 mg on Days 1 and 2 of treatment, respectively.

[4] = system: PSA; experiment: Example 8: PSA response; assay type: in vivo, human
From the text: Eligible men were aged ≥18 years with a histologically confirmed diagnosis of prostate adenocarcinoma, and were candidates for ADT for the management of hormone-sensitive prostate cancer with one of the following clinical disease states: advanced localized disease not suitable for primary surgical or radiation therapy; evidence of PSA biochemical or clinical relapse following primary surgery or radiation therapy of curative intent; or newly diagnosed metastatic disease that was asymptomatic and without visceral involvement. Additional inclusion criteria at screening included: eugonadal serum testosterone >150 ng/dl (5.2 nmol/L); serum PSA concentration >2 ng/ml (or, when applicable, >0.2 ng/ml following radical prostatectomy or >2 ng/mL above the post-radiotherapy nadir following radiotherapy); body mass index ≥18.0 at screening and/or baseline (i.e., the subject's BMI prior to treatment commencing); and Eastern Cooperative Oncology Group (ECOG) performance status of 0 or 1. Patients with advanced, localized MON1 or M1 disease with clinically significant symptoms or visceral involvement, who required immediate GnRH therapy, chemotherapy, or radiation therapy were not eligible for the trial.
PSA levels were measured at each visit.

[5] = system: serum testosterone; experiment: Example 6: serum testosterone (CLIA) in men with non-metastatic prostate cancer, Parts A and B; assay type: in vivo, human
[6] = system: PSA; experiment: Example 9: PSA; assay type: in vivo, human
Experimental: as §1, §2, §3, §4

[7] = subjects with at least 24 weeks of treatment

## CONC(=O)Nc1ccc(-c2sc3c(c2CN(C)C)c(=O)n(-c2ccc(OC)nn2)c(=O)n3Cc2c(F)cccc2F)cc1 [Compound 1, N-(4-(1-(2,6-difluorobenzyl)-5-((dimethylamino)methyl)-3-(6-methoxy-3-pyridazinyl)-2,4-dioxo-1,2,3,4-tetrahydrothieno[2,3-d]pyrimidin-6-yl)phenyl)-N′-methoxyurea]
[1]; Baseline
  FSH level before administration: 11.826 IU/L
[1]; Week 2, Day 1
  FSH level: 2.363 IU/L
[1]; Week 25, Day 1
  mean FSH level: 1.475 IU/L
[2]; 120 mg QD after 320 mg load
  visit by which average serum testosterone decreased below medical castration threshold of 50 ng/dL: Day 4
  visit by which average serum testosterone decreased below profound castration threshold of 20 ng/dl: Week 5 Day 1
[2]; 4 weeks from last dose
  Kaplan-Meier estimate (95% CI) of testosterone recovery, probability of event: 0.03 (0.00.0.08)
  Percent recovery (95% CI) to baseline testosterone or >280 ng/dL: 3.1 (0.4.10.7) %
[2]; 8 weeks from last dose
  Kaplan-Meier estimate (95% CI) of testosterone recovery, probability of event: 0.24 (0.13.0.34)
  Percent recovery (95% CI) to baseline testosterone or >280 ng/dL: 23.1 (13.5.35.2) %
[2]; 12 weeks from last dose
  Kaplan-Meier estimate (95% CI) of testosterone recovery, probability of event: 045 (0.33.0.58)
[2]; Baseline
  Median testosterone: 355.7 ng/dL
  Testosterone Median: 12.350 nmol/L
[2]; Baseline, Compound 1 120 mg QD or degarelix 80 mg Q4W
  Testosterone Mean (Std Dev): 14.067 (6.7100) nmol/L
[2]; EOS
  Testosterone Median: 8.920 nmol/L
[2]; EOT
  Testosterone Mean (Std Dev): 5.117 (5.7671) nmol/L
  Testosterone Median: 3.260 nmol/L
[2]; Follow-Up
  Testosterone Mean (Std Dev): 9.889 (6.3879) nmol/L
  Testosterone Median: 8.275 nmol/L
[2]; Week 1 Day 4
  time after start of dosing at which serum testosterone was on average below medical castration levels: 72 h
[2]; Week 24
  Median testosterone: 8.1 ng/dL
[2]; Week 25, Day 1
  Testosterone Mean (Std Dev): 0.395 (0.5584) nmol/L
  Testosterone Median: 0.280 nmol/L
[2]; Week 28/EOT visit
  Median testosterone: 93.9 ng/dL
[2]; Week 32/follow-up
  Median testosterone: 238.3 ng/dL
[2]; Week 36/EOS
  Median testosterone: 256.9 ng/dL
[2]; by 8 weeks of follow-up
  patients recovered to baseline testosterone or >280 ng/dL: Nearly half
[2]; end of 12-week follow-up
  patients recovered to baseline testosterone or greater than 280 ng/dL: approximately half
[2]; follow-up visit and end of study
  mean serum testosterone after removal of therapy: approximately 10 nmol/L
[2]; in vivo
  Median time to medical castration (≤50 ng/dL): 4 days
  Median time to profound castration (≤20 ng/dL): 15 days
[2]; over 24 weeks, overall
  medical castration rate (less than 50 ng/dL): 95%
  profound castration rate (less than 20 ng/dL): 82%
[2]; overall safety population
  Testosterone recovery (baseline or >280 ng/dL): number with events: 34 (52) n (%)
  Testosterone recovery: number censored: 30 (46) n (%)
  Time to testosterone recovery, 25th percentile (95% CI): 57 (45.62) days
  Time to testosterone recovery, 75th percentile (95% CI): 127 (93.127) days
  Time to testosterone recovery, Median (95% CI): 91 (62, 127) days and 91 (62.127) days
[2]; patients treated for at least 24 weeks
  median (95% CI) number of days to testosterone recovery: 86 (58, 93) days
[2]; [7]
  medical castration rate (less than 50 ng/dL): 98%
  profound castration rate (less than 20 ng/dL): 84%
[3]; across all dose cohorts
  most common treatment emergent adverse events: bradycardia, hot flush, and headache
[3]; in vivo
  changes in QT/QTc intervals: consistent with those described in the literature with other medical castration agents
  most common drug-related TEAE: hot flash
[3]; single and multiple doses
  overall safety and tolerability: safe and well tolerated
[3]; single dose or multiple dose for 14 or 28 days
  deaths, SAEs or severe AEs: no deaths, serious adverse events (SAEs), or severe AEs
[3]; without symptoms or changes in total bilirubin
  transaminases: Mild to moderate transaminase elevations
[4]; 80 mg QD
  Median time from first dose to PSA nadir: 16.1 Weeks
[4]; 120 mg QD
  Median time from first dose to PSA nadir: 12.3 Weeks
[4]; after 4 weeks of treatment
  patients with ≥50% serum PSA reduction: Eighty-three percent
  patients with ≥90% serum PSA reduction: Eight percent
[4]; by Week 13 Day 1 visit
  average PSA level: less than 0.4 ng/ml
[4]; by Week 21 Day 1 visit
  average PSA level: less than 0.2 ng/ml
[4]; end of 24 weeks dosing
  PSA % responses in most patients: exceed 90%
[4]; in vivo
  PSA response following initiation of treatment compared with leuprorelin: more rapid
[5]; Part A, load dose then maintenance 80, 120 or 160 mg QD
  time for mean serum testosterone to fall below medical castration levels (below 50 ng/dL): up to 3 days
[5]; Part A, maintained up to 3 days after last dose on Day 28
  when serum testosterone achieved medical castration levels in all subjects: between Day 2 and Day 14
[5]; Part B, 320 mg load then 80 or 120 mg QD
  time for mean serum testosterone to be suppressed below medical castration levels (below 50 ng/dL): ≤ 4 days
[5]; Part B, maintained throughout evaluation period
  when serum testosterone reached medical castration levels in all subjects: between Day 2 and Week 3
[6]; Baseline
  Median PSA: 7.3 µg/L
[6]; Week 24
  Median PSA: 0.07 µg/L
[6]; Week 28/EOT visit
  Median PSA: 0.07 µg/L
[6]; Week 32/follow-up
  Median PSA: 0.2 µg/L
[6]; Week 36/EOS
  Median PSA: 0.2 µg/L
[6]; by Week 13 Day 1 visit
  average PSA level: < 0.2 ng/mL
[6]; by the end of 12 weeks
  patients achieving PSA values less than 0.2 ng/ml: 6 of 30
[6]; end of 8 weeks of dosing, before radiation therapy
  PSA % responses in most patients: exceed 89%
